Test results from ChEMBL document CHEMBL3638540, “Pyrolinone derivative and pharmaceutical composition comprising the same” (2013).

molecular target: T1, P2X purinoceptor 3 (Homo sapiens, UniProt P56373); experiment: Inhibiton Assay: Inhibition assay using human P2X3 receptor gene (GeneBank accession number Y07683).
T1 sequence (P56373 whole entry): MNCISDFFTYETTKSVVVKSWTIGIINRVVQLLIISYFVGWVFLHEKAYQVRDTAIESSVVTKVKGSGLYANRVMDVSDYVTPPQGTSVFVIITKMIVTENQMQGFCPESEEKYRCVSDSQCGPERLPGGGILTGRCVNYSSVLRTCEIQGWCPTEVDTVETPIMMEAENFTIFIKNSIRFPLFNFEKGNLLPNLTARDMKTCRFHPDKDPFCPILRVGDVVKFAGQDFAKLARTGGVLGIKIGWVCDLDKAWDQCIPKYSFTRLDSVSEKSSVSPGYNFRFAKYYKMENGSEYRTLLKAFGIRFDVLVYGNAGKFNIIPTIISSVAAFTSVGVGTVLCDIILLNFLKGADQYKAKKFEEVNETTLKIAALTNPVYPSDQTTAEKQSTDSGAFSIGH

`COc1ncccc1C1c2c(n[nH]c2C(C)(C)C)C(=O)N1c1ccc(Br)cc1` (stereo not drawn) was tested. Which IC50 did it give?
The IC50 was 811 nM.

For `COc1ccccc1C1c2c(n[nH]c2C(C)(C)C)C(=O)N1c1ccc(Br)cc1` (stereo not drawn), which IC50 is on record?
Its IC50 is 238 nM.

With `COc1ccccc1C1c2c(n[nH]c2C(C)(C)CO)C(=O)N1c1ccc(Br)cc1` (stereo not drawn) as the molecule, how does the IC50 read?
The IC50 was 473 nM.
